For five compounds, IC50 and viability, T/C results are on record in PubChem BioAssay AID2060511 (Molecular Pharmacology Branch, DTP, NCI, 2025).

This experiment relates to 422866-222-R5-J1-PDC spheroids with HUVEC/MSC, viability. The experiment is described as follows: Anticancer human tumor 422866-222-R5-J1-PDC patient-derived pancreatic adenocarcinoma cell line growth inhibition [GQUAD]. Conditions: for viability, T/C: stronger effect = lower value. An excerpt: DNA G-quadruplex Stabilizer Agents in Combinations in Complex Spheroids
A high-throughput screen of multi-cell type tumor spheroids was designed to identify active combinations of DNA G-quadruplex stabilizer agents and targeted small molecules. Complex spheroids include a stromal component modeled by human endothelial cells (HUVEC) and fibroblasts modeled by human mesenchymal stem cells (MSCs). The concentration ranges selected for each drug and investigational agent were based upon clinically achievable concentrations if the clinical Cmax of the agent was known.
Compounds. The drugs and investigational agents: pidnarulex (CX-5461; NSC782164), APTO-253 (NSC789042), BRACO-19 (NSC847499), peposertib (NSC802822), ceralasertib (NSC780249), elimusertib (NSC800525), camonsertib (NSC841442), AZD-1390 (NSC803789), olaparib (NSC753686), talazoparib (NSC767125), ART-558 (NSC835418), sotorasib (NSC818433), MRTX-1133 (NSC836407), SN-38 (NSC673596), topotecan (NSC609699), etoposide (NSC141540), doxorubicin (NSC123127), gemcitabine (NSC613327), 5-fluorouracil (NSC19893), paclitaxel (NSC125973), vemurafenib (NSC761431), panobinostat (NSC761190), R-306465 (JNJ-16241199; NSC773264), adavosertib (NSC754352), TP-3654 (NSC805149), carboplatin (NSC241240), KSQ-4279 (NSC840948), and staurosporine (NSC755774) were obtained from the National Cancer Institute (NCI) Developmental Therapeutics Program Chemical Repository (34). The FDA-approved anticancer drug set is available from the NCI Developmental Therapeutics Program. […] The stock solutions were prepared in dimethyl sulfoxide (DMSO, Sigma-Aldrich, St. Louis, MO, cat. D2650) at 800-fold the tested concentration and stored at -70 degrees C prior to their use. All drugs and investigational agents were tested over a range starting from a high concentration at or near the clinical Cmax and decreasing in half-log increments. If the clinical Cmax for an agent had not been determined, the highest concentration tested was 10 microM.
2.3 Cell Culture. All cells were maintained in an incubator at 37 degrees C and 5% CO2 with 95% humidity. The PDC lines were cultured according to standard operating procedures established by the NCI PDMR. All PDCs were thawed and cultured in Matrigel-coated flasks prepared with a working solution of 1X Ham's F-12 nutrient mix, without supplementation (Invitrogen, cat. 11765054), 100 U/mL penicillin-streptomycin (Invitrogen, cat. 15140122), and 2.5% Matrigel (Corning Inc., cat. 354248) for the first three passages. The 857933-349-R-J2-PDC line was cultured in 6C/Colon 1B media, which includes advanced DMEM/F-12 (Thermo Fisher Scientific, cat. 12634028), 10 mM HEPES (Thermo Fisher Scientific, cat. 15630080), 1X GlutaMAX supplement (Thermo Fisher Scientific, cat. 35050061), 0.1 mg/mL primocin (InvivoGen, cat. ant-pm-2), 10% defined fetal bovine serum, heat inactivated (HyClone Laboratories Inc., cat. SH30070.03HI), 50% L-WRN conditioned media (ATCC, cat. CRL-3276), 1.25 mM N-Acetyl-L-cysteine (Sigma-Aldrich, cat. A9165), 10 mM nicotinamide (Sigma-Aldrich, cat. N0636), 1X B-27 supplement (Thermo Fisher Scientific, cat. 17504044), 1X N-2 supplement (Thermo Fisher Scientific, cat. 17502048), 10 microM Y-27632 dihydrochloride (Tocris Bioscience, cat. 1254), and 50 ng/mL human EGF recombinant protein (Thermo Fisher Scientific, cat. PHG0311). The 485176-168-R4-J1-PDC line was cultured in Panc media, which includes all 6C/Colon 1B media components plus 100 ng/mL human FGF-10 (Thermo Fisher Scientific, cat. 100-26), 500 nM SB-431542 (Selleckchem, cat. S1067), and gastrin (Tocris, cat. 3006).
[…]

The mark [1] stands for this setting: curve of first compound, second compound 0.0316 µM.
[2] abbreviates: curve of first compound, second compound 0.1 µM.
Setting [3] is: curve of first compound, second compound 0.316 µM.
Setting [4] is: curve of first compound, second compound 1 µM.
[5] abbreviates: curve of first compound, second compound 3.16 µM.
Setting [6] is: curve of first compound, second compound 10 µM.
The mark [7] stands for this setting: second compound 0.0316 µM, first compound 0.0316 µM.
[8] abbreviates: second compound 0.0316 µM, first compound 0.1 µM.
[9] abbreviates: second compound 0.0316 µM, first compound 0.316 µM.
The mark [10] stands for this setting: second compound 0.0316 µM, first compound 1 µM.
Setting [11] is: second compound 0.0316 µM, first compound 3.16 µM.
The mark [12] stands for this setting: second compound 0.0316 µM, first compound 10 µM.
The mark [13] stands for this setting: second compound 0.1 µM, first compound 0.0316 µM.
The mark [14] stands for this setting: second compound 0.1 µM, first compound 0.1 µM.
The mark [15] stands for this setting: second compound 0.1 µM, first compound 0.316 µM.
Where [16] appears, read: second compound 0.1 µM, first compound 1 µM.
Where [17] appears, read: second compound 0.1 µM, first compound 3.16 µM.
The mark [18] stands for this setting: second compound 0.1 µM, first compound 10 µM.
Setting [19] is: second compound 0.316 µM, first compound 0.0316 µM.
[20] abbreviates: second compound 0.316 µM, first compound 0.1 µM.
Where [21] appears, read: second compound 0.316 µM, first compound 0.316 µM.
[22] abbreviates: second compound 0.316 µM, first compound 1 µM.
The mark [23] stands for this setting: second compound 0.316 µM, first compound 3.16 µM.
Where [24] appears, read: second compound 0.316 µM, first compound 10 µM.
Where [25] appears, read: second compound 1 µM, first compound 0.0316 µM.
[26] abbreviates: second compound 1 µM, first compound 0.1 µM.
Where [27] appears, read: second compound 1 µM, first compound 0.316 µM.
[28] abbreviates: second compound 1 µM, first compound 1 µM.
[29] abbreviates: second compound 1 µM, first compound 3.16 µM.
The mark [30] stands for this setting: second compound 1 µM, first compound 10 µM.
Setting [31] is: second compound 3.16 µM, first compound 0.0316 µM.
[32] abbreviates: second compound 3.16 µM, first compound 0.1 µM.
Setting [33] is: second compound 3.16 µM, first compound 0.316 µM.
Setting [34] is: second compound 3.16 µM, first compound 1 µM.
Setting [35] is: second compound 3.16 µM, first compound 3.16 µM.
Setting [36] is: second compound 3.16 µM, first compound 10 µM.
The mark [37] stands for this setting: second compound 10 µM, first compound 0.0316 µM.
[38] abbreviates: second compound 10 µM, first compound 0.1 µM.
Setting [39] is: second compound 10 µM, first compound 0.316 µM.
[40] abbreviates: second compound 10 µM, first compound 1 µM.
The mark [41] stands for this setting: second compound 10 µM, first compound 3.16 µM.
[42] abbreviates: second compound 10 µM, first compound 10 µM.

Several values for one entry are separate records, joined by “and”; a condition that tells them apart may be missing. Equal entries are not always repeated.
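Also: spheroids exposed to compounds for seven days before reading.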
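For viability, T/C in this document: percent viability relative to DMSO vehicle control taken as 100%.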

Broadly, the IC50 is the point on the concentration scale where inhibition reaches its midpoint. One may read the viability, T/C as the result in the treated group divided by that in the control group, in per cent. Turning to `CC1COCCN1c1cc(C2(O)CC3CCC(C2)O3)c2cnn(-c3ccn[nH]3)c2n1` (centres undefined) + CN(C)c1ccc(Nc2c3ccc(NC(=O)CCN4CCCC4)cc3nc3cc(NC(=O)CCN4CCCC4)ccc23)cc1, the IC50 was > 10 µM under setting [1]; 0.0316 µM under setting [2]; > 10 µM under setting [3]; 0.0316 µM under setting [4]; > 10 µM under setting [5]; 0.0316 µM under setting [6]. Besides, the viability, T/C runs as follows: under setting [7], 65.6%; under setting [8], 52.2%; under setting [9], 55.3%; under setting [10], 90%; under setting [11], 87.1%; under setting [12], 92.5%. The viability, T/C is, setting by setting: under setting [13], 79.8%; under setting [14], 49.7%; under setting [15], 45.7%; under setting [16], 108%; under setting [17], 91.4%; under setting [18], 90.4%. Besides, the viability, T/C under setting [19] is 78.8%; the viability, T/C under setting [20] is 45.1%; the viability, T/C under setting [21] was 64.5%; the viability, T/C under setting [22] is 90%; the viability, T/C under setting [23] was 94.1%; the viability, T/C under setting [24] was 88.4%. Also, the viability, T/C under setting [25] is 61.9%; the viability, T/C under setting [26] is 49.6%; the viability, T/C under setting [27] is 39.4%; the viability, T/C under setting [28] was 88%; the viability, T/C under setting [29] was 89.1%; the viability, T/C under setting [30] was 83.8%. The viability, T/C is 57.4% under setting [31]; 51.8% under setting [32]; 50.2% under setting [33]; 87.3% under setting [34]; 95.5% under setting [35]; 83.9% under setting [36]. The viability, T/C was 59.8% under setting [37]; 47.3% under setting [38]; 43.1% under setting [39]; 93.1% under setting [40]; 88.3% under setting [41]; 88.5% under setting [42].
For `CC(C)n1c(=O)n(C)c2cnc3cc(F)c(-c4ccc(OCCCN5CCCCC5)nc4)cc3c21`, the viability, T/C is, setting by setting: (compound 0.0316 µM) 99.2% and 87.6% and 100%; (compound 0.1 µM) 80.5% and 101% and 90.1%; (compound 0.316 µM) 110% and 104% and 113%; (compound 1 µM) 97.4% and 95.7% and 97.5%; (compound 3.16 µM) 85.5% and 89.8% and 90.1%; (compound 10 µM) 58.6% and 62.1% and 64.2%. In addition, the half-maximal inhibitory concentration (IC50) (curve of compound) was > 10 µM.
Take `CC1COCCN1c1cc(C2(S(C)(=N)=O)CC2)nc(-c2ccnc3[nH]ccc23)n1` (centres undefined) + Cc1[nH]c2ccc(F)cc2c1-c1nc2c3cccnc3c3ncccc3c2[nH]1: the concentration for half-maximal inhibition (IC50) runs as follows: under setting [1], 3.01 µM; under setting [2], 2.35 µM; under setting [3], 5.49 µM; under setting [4], 3.47 µM; under setting [5], 2.28 µM; under setting [6], > 10 µM. Besides, the viability, T/C is 99.6% under setting [7]; 84.9% under setting [8]; 90.2% under setting [9]; 62.4% under setting [10]; 52% under setting [11]; 41.5% under setting [12]. In addition, the viability, T/C under setting [13] was 78.9%; the viability, T/C under setting [14] was 83.8%; the viability, T/C under setting [15] is 92.3%; the viability, T/C under setting [16] is 62.2%; the viability, T/C under setting [17] is 48.9%; the viability, T/C under setting [18] was 42.5%. Moreover, the viability, T/C is 106% under setting [19]; 84.9% under setting [20]; 88.2% under setting [21]; 72.6% under setting [22]; 56.2% under setting [23]; 41.7% under setting [24]. The viability, T/C is 70.3% under setting [25]; 90.4% under setting [26]; 78.8% under setting [27]; 66.7% under setting [28]; 51.4% under setting [29]; 45.2% under setting [30]. Further, the viability, T/C under setting [31] is 69.4%; the viability, T/C under setting [32] was 79.4%; the viability, T/C under setting [33] is 67.5%; the viability, T/C under setting [34] was 57.3%; the viability, T/C under setting [35] is 48.4%; the viability, T/C under setting [36] is 40.2%. Also, the viability, T/C reads like this: under setting [37], 81.6%; under setting [38], 63.7%; under setting [39], 65.6%; under setting [40], 50.4%; under setting [41], 50.7%; under setting [42], 54.3%.
For `C=CC(=O)N1CCN(c2nc(=O)n(-c3c(C)ccnc3C(C)C)c3nc(-c4c(O)cccc4F)c(F)cc23)C(C)C1` (centres undefined), the viability, T/C is, setting by setting: (compound 0.0316 µM) 36.5% and 39.1% and 37%; (compound 0.1 µM) 32.9% and 29.9% and 28.5%; (compound 0.316 µM) 26.3% and 28.8% and 27.6%; (compound 1 µM) 27.3% and 26.2% and 23%; (compound 3.16 µM) 28.3% and 28.8% and 27.6%; (compound 10 µM) 29.3% and 30.3% and 27.3%. Also, the half-maximal inhibitory concentration (IC50) (curve of compound) is < 0.0316 µM.
Consider `C=CCn1c(=O)c2cnc(Nc3ccc(N4CCN(C)CC4)cc3)nc2n1-c1cccc(C(C)(C)O)n1`, for which the viability, T/C was 80.3% and 112% and 88.7% (compound 0.0316 µM); 106% and 90.1% and 74.5% (compound 0.1 µM); 125% and 67.2% and 52.5% (compound 0.316 µM); 143% and 39.7% and 40.5% (compound 1 µM); 172% and 31.3% and 30.6% (compound 3.16 µM); 99.8% and 32.3% and 27.9% (compound 10 µM).
